This is an account of results in patent US6828342B2, “Nitric esters and nitrate salts of specific drugs” (priority 1999, dated 2004).

Where a name gives a salt, the structure may show the parent alone.

In data set [1] the test system is phenol red in the tracheal secretion. Put plainly: Mucolitic activity in mice: phenol red in the tracheal secretion. The data set is classed as in vivo. As for the experimental part: Mucolitic Activity in Mice of Ambroxol Nitrate and Ambroxol Hydrochloride
Mucolitic activity in male mice was evaluated according to the Method of Engler and Zselenyi, J. Pharm. Methods 11, 151, 1984. By this method it is determined the quantity of phenol red in the tracheal secretion. The animals were previously administered i.p. at a dose of 500 mg/Kg with the dye dissolved in physiologic solution. 3 groups of mice (weight 18±2 g), of 10 animal each, were treated i.p. with the dye. One group was the control group. Each of the two treated groups received, ten minutes before the above injection, an i.p. injection of 264 micromoles/Kg of Ambroxol nitrate or Ambroxol hydrochloride, respectively. 30 minutes after the phenol red injection, the animals were sacrificed. The trachea was freed from the sorrounding tissues, dissected and washed for 30 minutes in 3 ml of physiologic solution. 0.1 ml of 1 M sodium hydroxyde were then added to the physiologic solution. The washings were centrifuged for 15 minutes at 3000 rpm. A spectrophotometric assay was performed on the supernatant in order to determine the concentration of phenol red in the physiologic solution. Mucolitic activity was determined as % variation of absorbance of the sample in the confront of that of the control group, assumed to be 100%.

Data set [2] has as its system histamine-induced bronchoconstriction. In words: Antihistaminic activity: experimental bronchoconstriction by histamine in the guinea pig. The following applies: result in words.
Data set [3] concerns cough strokes caused by citric acid aerosol. In words: Anti-tussive activity: cough strokes caused by citric acid aerosol in the guinea pig. The format is in vivo. The following applies: 110 micromoles/Kg i.p.; for cough strokes (%): citric acid 7.5% aerosol, 30 minutes before aerosol, cough strokes over 10 minutes referred to control = 100%; for Antitussive potency compared with the corresponding hydrochlorides: result in words. As for the experimental part: Anti-tussive Activity in the Guinea Pig of Dextromethorphan Hydrochloride, Dextromethorphan Nitrate, Dextrorphan Hydrochloride and Dextrorphan Nitrate
Guinea pigs (weight: 430+20) were treated as described by Braga et Al. Arzneim. Forsch./Drug Res. 43, 550, 1993.
In this pharmacological experiment 5 groups of 8 animals each were formed. One group was not treated and was the control group.
Each animal was placed in a cilindrical glass container having one tubing through each of the two circular flat surfaces. Said tubing were, respectively, for the aerosol inlet and outlet. The outlet tubing is connected to a polygraphic system.
The aerosol was formed from a solution 7.5% by weight of citric acid in water.
The air variation inside the glass container was registered before and after a cough stroke caused by the aerosol. One hour later Dextromethorphan hydrochloride, Dextromethorphan nitrate, Dextrorphan hydrochloride and dextrorphan nitrate were i.p. administered in a physiologic solution at a dose of 110 micromoles/Kg. 30 minutes after the injection the animals were treated with the aerosol. It was then registered the number of cough strokes for a time of 10 minutes. In the following Table III are reported the average response obtained from each treated group, referred to that of the control group, made 100%.

Data set [4] relates to heart frequency. In words: Heart frequency (tachycardia) by electrocardiographic device in the capsaicin bronchoconstriction study. The data set is classed as in vivo. As to conditions: guinea pig; 0.3 nmoles/min i.v. infusion; heart frequency as percent with respect to the control (carrier 188 ±7 beats per minute = 100); Nitrate Salt. As for the experimental part:
Each groups consisted of eight animals. […] For a total 15 minutes, starting from 5 minutes before capsaicin injection to 10 minutes after) Salbutamol (0.3 nmoles/min), or the corresponding nitrate salt (0.3 nmoles/min) or only the carrier were administered by intravenous infusion were administered to each group.
The heart frequency was determined by an electrocardiographic device, according to the usual methods.

Data set [5] concerns bronchoconstrictive response induced by capsaicin. In words: Experimental bronchoconstriction induced by capsaicin in the guinea pig (tidal air variation, Konzett apparatus). The following applies: 0.3 nmoles/min i.v., result in words. The format is in vivo. As for the experimental part:
Each groups consisted of eight animals. […] For a total 15 minutes, starting from 5 minutes before capsaicin injection to 10 minutes after) Salbutamol (0.3 nmoles/min), or the corresponding nitrate salt (0.3 nmoles/min) or only the carrier were administered by intravenous infusion were administered to each group. […] The heart frequency was determined by an electrocardiographic device, according to the usual methods.

With `Nc1c(Br)cc(Br)cc1CNC1CCC(O)CC1` (centres unmarked) [Ambroxol hydrochloride, reference compound], the “Mucolitic activity (%)” value in data set [1] (male mice, 264 micromoles/Kg i.p. ten minutes before phenol red 500 mg/Kg i.p., % variation of absorbance versus control group = 100%, hydrochloride) is on record as 30%.

On to `Nc1c(Br)cc(Br)cc1CNC1CCC(O)CC1` (centres unmarked) [Ambroxol nitrate, Ambroxol Nitrate Salt], for which, in data set [1] (mice, 264 micromoles/Kg i.p., result in words), the “Mucolitic activity compared with the corresponding hydrochloride” value was “higher than that of the corresponding hydrochloride”.

Take `O=C(O)COCCN1CCN(C(c2ccccc2)c2ccc(Cl)cc2)CC1` (centres unmarked) [Cetirizine nitrate, Cetirizine Nitrate Salt]: the “Antihistamine activity compared with Cetirizine hydrochloride” value in data set [2] is “improved antihistamine activity”.

Consider `COc1ccc2c(c1)[C@@]13CCCC[C@H]1[C@@H](C2)N(C)CC3` [Dextromethorphan hydrochloride, reference compound], for which, in data set [3] (hydrochloride), the “cough strokes (%)” value was found to be 30%.

On to `COc1ccc2c(c1)[C@@]13CCCC[C@H]1[C@@H](C2)N(C)CC3` [Dextromethorphan nitrate, Dextromethorphan Nitrate Salt], for which the “Antitussive potency compared with the corresponding hydrochlorides” value in data set [3] was “more potent antitussive agents than the corresponding hydrochlorides”. Further, the “cough strokes (%)” value in data set [3] (Nitrate Salt) was found to be 0%.

On to `CN1CC[C@]23CCCC[C@H]2[C@H]1Cc1ccc(O)cc13` [Dextrorphan hydrochloride, reference compound], for which, in data set [3] (hydrochloride), the “cough strokes (%)” value came out at 40%.

As to `CN1CC[C@]23CCCC[C@H]2[C@H]1Cc1ccc(O)cc13` [Dextrorphan nitrate, Dextrorphan Nitrate Salt], the “Antitussive potency compared with the corresponding hydrochlorides” value in data set [3] is given as “more potent antitussive agents than the corresponding hydrochlorides”. Moreover, the “cough strokes (%)” value in data set [3] (Nitrate Salt) came out at 0%.

Regarding `CC(C)(C)NCC(O)c1ccc(O)c(CO)c1` (centres unmarked) [Salbutamol · HNO3, Salbutamol Nitrate Salt], in data set [4], the “Tachycardia (%)” value worked out at 97%. In addition, the “Inhibition of the bronchoconstrictive response induced by capsaicin, compared with Salbutamol” value in data set [5] is recorded as “as effective as Salbutamol”.
